Reference: ChEMBL document CHEMBL5120821, “Diterpenoids from Sauropus spatulifolius Leaves with Antimicrobial Activities” (2022)
Values after ≈ are worked out from the molar mass of the structure shown. Active and inactive are the calls of the source. No cut-off for these calls is given here.

Columns and labels:
[1] = test system: Micrococcus luteus; experiment: Antibacterial activity against Micrococcus luteus ATCC 9341 assessed as bacterial growth inhibition incubated for 18 hrs by microdilution method; type: functional
[2] = test system: Shigella flexneri; experiment: Antibacterial activity against Shigella flexneris ATCC 12022 assessed as bacterial growth inhibition incubated for 18 hrs by microdilution method; type: functional
[3] = test system: Staphylococcus epidermidis; experiment: Antibacterial activity against Staphylococcus epidermidis ATCC 12228 assessed as bacterial growth inhibition incubated for 18 hrs by microdilution method; type: functional
[4] = test system: Streptococcus pneumoniae; experiment: Antibacterial activity against Streptococcus pneumoniae ATCC 49619 assessed as bacterial growth inhibition incubated for 18 hrs by microdilution method; type: functional
[5] = test system: Bacillus subtilis; experiment: Antibacterial activity against Bacillus subtilis ATCC 6633 assessed as bacterial growth inhibition incubated for 18 hrs by microdilution method; type: functional
[6] = test system: Staphylococcus aureus; experiment: Antibacterial activity against Staphylococcus aureus ATCC 25923 assessed as bacterial growth inhibition incubated for 18 hrs by microdilution method; type: functional
[7] = test system: Escherichia coli; experiment: Antibacterial activity against Escherichia coli ATCC 25922 assessed as bacterial growth inhibition incubated for 18 hrs by microdilution method; type: functional
[8] = test system: Influenza A virus; experiment: Antiviral activity against PR8-GFP transfected IAV infected in MDCK cells assessed as inhibition of viral replication at MOI of 0.01 at 10 uM preincubated for 8 hrs followed by infected with virus incubated for 24 hrs by fluorescence microscope analysis; type: functional, organism-based; conditions: time 32.0 hrs
[9] = test system: Vesicular stomatitis virus; experiment: Antiviral activity against GFP transfected VSV infected in MDCK cells assessed as inhibition of viral replication at MOI of 0.1 at 10 uM preincubated for 8 hrs followed by infected with virus incubated for 24 hrs by flow cytometry (reference value: 51.3+/-1.1%); type: functional; design: scale not given: the % may be the effect or the level left; conditions: time 32 hrs
[10] = test system: Vesicular stomatitis virus; experiment: Antiviral activity against GFP transfected VSV infected in MDCK cells assessed as inhibition of viral replication at MOI of 0.1 at 10 uM preincubated for 8 hrs followed by infected with virus incubated for 24 hrs by fluorescence microscope analysis; type: functional, organism-based; conditions: time 32.0 hrs

Row | Compound | MIC [1] [µg/mL] | MIC [2] [µg/mL] | MIC [3] [µg/mL] | MIC [4] [µg/mL] | MIC [5] [µg/mL] | MIC [6] [µg/mL] | MIC [7] [µg/mL] | Activity [8] | Activity [9] [%] | Activity [10]
1 | Cc1cc2c(cc1O)[C@]1(C)C[C@@H](O)[C@@H](O)C(C)(C)[C@H]1CC2 | 32 (≈ 110 µM) | 32 (≈ 110 µM) | 32 (≈ 110 µM) | 32 (≈ 110 µM) | 32 (≈ 110 µM) | 32 (≈ 110 µM) | > 64 |  |  | 
2 | Cc1cc2c(cc1O)[C@]1(C)C[C@@H](O)[C@@H](O)C(C)(C)C1=CC2=O | > 64 | > 64 | > 64 | > 64 | > 64 | > 64 | > 64 |  |  | 
3 | C=Cc1c(C)c(O)cc2c1CC[C@@H]1C(C)(C)[C@H](O)[C@H](O)C[C@@]21C | 16 (≈ 50.6 µM) | 12 (≈ 37.9 µM) | 12 (≈ 37.9 µM) | 16 (≈ 50.6 µM) | 12 (≈ 37.9 µM) | 12 (≈ 37.9 µM) | > 64 | Active | 3.4 | Active
4 | Cc1ccc2c(c1)CC[C@@H]1C(C)(C)[C@H](O)[C@H](O)C[C@@]21C | > 64 | > 64 | > 64 | > 64 | > 64 | > 64 | > 64 |  |  | 
5 | CC[C@H]1OC(=O)[C@H](C)[C@@H](O[C@H]2C[C@@](C)(OC)[C@@H](O)[C@H](C)O2)[C@H](C)[C@@H](O[C@@H]2O[C@H](C)C[C@H](N(C)C)[C@H]2O)[C@](C)(OC)C[C@@H](C)C(=O)[C@H](C)[C@@H](O)[C@]1(C)O [CLARITHROMYCIN] | < 0.125 | < 0.125 | 0.25 (≈ 0.334 µM) | < 0.125 | < 0.125 | 0.25 (≈ 0.334 µM) | 2 (≈ 2.67 µM) |  |  | 
6 | C=CC1=C(C)C(=O)C=C2[C@]1(O)CC[C@@H]1C(C)(C)[C@H](O)[C@H](O)C[C@@]21C | > 64 | > 64 | > 64 | > 64 | > 64 | > 64 | > 64 |  |  | 
7 | C=Cc1ccc2c(c1)CC[C@@H]1C(C)(C)[C@H](O)[C@H](O)C[C@@]21C | > 64 | > 64 | > 64 | > 64 | > 64 | > 64 | > 64 |  |  | 
8 | Cc1cc2c(cc1O)[C@]1(C)C[C@@H](O)[C@@H](O)C(C)(C)[C@H]1CC2=O | > 64 | > 64 | > 64 | > 64 | > 64 | > 64 | > 64 |  |  | 
9 | CC1=CC2=CC[C@@H]3C(C)(C)[C@H](O)[C@H](O)C[C@@]3(C)[C@@H]2CC1=O | > 64 | > 64 | > 64 | > 64 | > 64 | > 64 | > 64 |  |  | 
